The values that follow come from patent US20230241063A1, “METHODS OF TREATING PROSTATE CANCER” (Celgene Quanticel Research, Inc., priority 2020, published 2023).

Assay [1] relates to Krt8. In words: Krt8 gene expression by qPCR in DKO cells. In kind it is cell-based, mouse. The note with it: 8 days, enzalutamide 10 uM in the combination.
For another assay, the system named is LNCaP-AR cells. Put plainly: Proliferation assay (Cell Titer-Glo) in LNCaP-AR cells. In kind it is cell-based, human. Particulars: single agent, 3 days.
The subject of another assay is DKO cells. In words: Proliferation assay (Cell Titer-Glo) in DKO cells. The note with it: Compound A alone. The assay is classed as cell-based, mouse.
A further assay deals with VCaP cells. In words: Proliferation assay (Cell Titer-Glo) in VCaP cells. The assay is classed as cell-based, human. Particulars: 3 days; enzalutamide 10 uM in the combination.
The subject of the next assay is TKO cells. In words: Proliferation assay (Cell Titer-Glo) in TKO cells. The assay is classed as cell-based, mouse. Particulars: Compound A alone.
For another assay, the system named is PC3 cells. Put plainly: Proliferation assay (Cell Titer-Glo) in PC3 cells. In kind it is cell-based, human. Particulars: single agent, 3 days, CellTiter Glo.
Assay [2] relates to LNCaP-AR CRISPRi TP53/RB1 cells. Put plainly: Proliferation assay (Cell Titer-Glo) in LNCaP-AR CRISPRi TP53/RB1 cells. In kind it is cell-based, human. The note with it: single agents, 6 days, LNCaP_AR guideTP53/RB1 cells.
A further assay relates to LNCaP cells. In words: Proliferation assay (Cell Titer-Glo) in LNCaP cells. The assay is classed as cell-based, human. The note with it: single agent, 6 days.
Assay [3] concerns Krt8. Put plainly: Krt8 gene expression by qPCR in TKO cells. The assay is classed as cell-based, mouse. The note with it: single agent, 8 days.

“Also recorded” adds a separate entry of the source.

On to `COc1ccc(-c2c(-c3ccc(C#N)c(F)c3)nc(N3CCC(N)CC3)n(C)c2=O)cc1F` [Compound A, 4-[2-(4-amino-piperidin-1-yl)-5-(3-fluoro-4-methoxy-phenyl)-1-methyl-6-oxo-1,6-dihydro-pyrimidin-4-yl]-2-fluoro-benzonitrile], for which the “induction of Keratin8 (Krt8) expression” value with Krt8 [1] turned out to be 1.5 fold. Besides, the “effect on cell proliferation” value with LNCaP-AR cells was “no effect on cell proliferation”. For the same compound, in the assay on DKO cells, the “effect on DKO cell proliferation” value was “mild effect”. Also, the “effect on proliferation of VCaP cells” value in the assay with VCaP cells is listed as “no effect on proliferation; also recorded: did not affect proliferation”. The “effect on TKO cell proliferation” value in the assay on TKO cells is “mild effect”. In addition, the “effect on cell proliferation of PC3 cells” value in the assay on PC3 cells was “did not affect cell proliferation; also recorded: does not affect cell proliferation”. Further, the effect on proliferation entry in [2] was “do not affect proliferation; also recorded: did not affect proliferation”. Further, the “effect on proliferation of LNCaP cells” value in the assay with LNCaP cells is “no effect on proliferation; also recorded: did not affect proliferation”. For the same compound, the “concentration of Compound A able to induce the expression of Krt8” value with Krt8 [3] was not below 1 µM.
As to `CNC(=O)c1ccc(N2C(=S)N(c3ccc(C#N)c(C(F)(F)F)c3)C(=O)C2(C)C)cc1F` [enzalutamide, 4-{3-[4-cyano-3-(trifluoromethyl)phenyl]-5,5-dimethyl-4-oxo-2-sulfanylideneimidazolidin-1-yl}-2-fluoro-N-methylbenzamide, reference compound], the “effect on cell proliferation of PC3 cells” value with PC3 cells is “resistant”. Further, the effect on proliferation result in assay [2] was “do not affect proliferation”; in [2] (listed as ENZA), “did not affect proliferation”.
